pIC50: −log10 of the molar value. Marks after values point to notes of the source that are not given here.
Columns and labels:
[1] = target: human indoleamine 2,3-dioxygenasae (IDO) (Homo sapiens, UniProt P14902); conditions: human IDO enzyme assay; see U.S. Pat. No. 8,088,803; cited from earlier work
[2] = Phase 1 dose-escalation clinical study of INCB024360 in combination with MK-3475: adverse events; type: in vivo
Protocol: This Example describes an ongoing Phase 1/2 clinical study to evaluate the safety, tolerability and efficacy of the inventive combination of MK-3475 and INCB024360 in subjects presenting with various solid tumors and advanced non-small cell lung cancer (NSCLC). Phase 1 of the study is a dose-escalation phase and Phase 2 is randomized, double-blind, and placebo-controlled. Phase 1 of the study is conducted in subjects with selected advanced or metastatic solid tumors. Phase 2 of the study is conducted in subjects with advanced NSCLC, e.g., Stage IIIB, IV, or recurrent NSCLC. The dose-escalation phase (Phase 1) is open-label and is designed to identify the maximum tolerated dose (MTD) or pharmacologically acceptable doses (PAD) of INCB024360 in combination with MK-3475 in subjects with Stage IIIB, IV, or recurrent NSCLC, melanoma, transitional cell carcinoma of the genitourinary (GU) tract, renal cell cancer, triple negative breast cancer, adenocarcinoma of the endometrium or squamous cell carcinoma of the head and neck who have disease progression on at least 1 line of therapy for advanced or metastatic cancer.
The Phase 1 dose-escalation phase includes cohorts of subjects treated with INCB024360 twice daily (BID) at initial doses of 25 mg BID, 50 mg BID, and 100 mg BID in combination with MK-3475 at 2 mg/kg every 3 weeks. One treatment cycle consists of 21 days. A minimum of 3 subjects are enrolled and treated in each cohort, and all 3 subjects are observed for a minimum of 42 days (6 weeks) before the subsequent cohort begins enrollment. Additional subjects are enrolled in a cohort to achieve the minimum of 3 evaluable subjects if dropouts or dose interruptions or reductions occur that result in a subject being nonevaluable for dose limiting toxicities (DLTs). When the MTD or PAD is reached, additional subjects are enrolled for a total of 9 subjects, but the additional subjects are treated with MK-3475 at 200 mg every 3 weeks and the MTD or PAD of INCB024360 to further evaluate safety and confirm it as the recommended Phase 2 dose (RP2D). The study subject cohorts are summarized as follows:
For treatment, INCB024360 is self-administered orally BID and continued BID during the 21-day cycle for an every-3-week dose schedule of MK-3475. The MTD of INCB024360 (or PAD) defined during Phase 1 is used for Phase 2. All BID doses are taken morning and evening, approximately 12 hours apart without respect to food. If a dose is missed by more than 4 hours, that dose is skipped and is resumed at the scheduled time. MK-3475 is administered at 2 mg/kg or 200 mg intravenously (IV) over a 30-minute period on Day 1 of an every-3-week cycle, with no intrasubject dose escalation. Study subject participation averages about 6 months.
Primary endpoints of the Phase 1 study are as follows: Safety and tolerability are assessed by monitoring frequency, duration and severity of AEs, through physical examinations, by evaluating changes in vital signs and electrocardiograms, and through clinical laboratory blood and urine sample evaluations. Primary endpoints of the Phase 2 study are as follows: Progression-free survival, defined as the time from randomization until the earliest date of disease progression, as determined by investigator assessment of objective radiographic disease assessments per modified RECIST v1.1, or death due to any cause, if occurring sooner than progression. Imaging is archived for possible retrospective central confirmation of disease progression and response.
Table 4 below presents preliminary data of adverse events (AEs), including immune-related AEs, reported in the described study.

[3] = test system: selected advanced or metastatic solid tumors; experiment: Phase 1 dose-escalation clinical study of INCB024360 in combination with MK-3475: tumor response (modified RECIST v1.1); type: in vivo, human; conditions: for CR, patients / NE (not evaluable), patients / PD, patients / PR, patients: preliminary
Protocol: Phase 1 of the study is a dose-escalation phase and Phase 2 is randomized, double-blind, and placebo-controlled. Phase 1 of the study is conducted in subjects with selected advanced or metastatic solid tumors. Phase 2 of the study is conducted in subjects with advanced NSCLC, e.g., Stage IIIB, IV, or recurrent NSCLC. […] The Phase 1 dose-escalation phase includes cohorts of subjects treated with INCB024360 twice daily (BID) at initial doses of 25 mg BID, 50 mg BID, and 100 mg BID in combination with MK-3475 at 2 mg/kg every 3 weeks. One treatment cycle consists of 21 days. A minimum of 3 subjects are enrolled and treated in each cohort, and all 3 subjects are observed for a minimum of 42 days (6 weeks) before the subsequent cohort begins enrollment. […] The study subject cohorts are summarized as follows: For treatment, INCB024360 is self-administered orally BID and continued BID during the 21-day cycle for an every-3-week dose schedule of MK-3475. The MTD of INCB024360 (or PAD) defined during Phase 1 is used for Phase 2. All BID doses are taken morning and evening, approximately 12 hours apart without respect to food. If a dose is missed by more than 4 hours, that dose is skipped and is resumed at the scheduled time. […] Study subject participation averages about 6 months. The Study Schedule and Procedures for the Phase 1/2 study are as follows: […] Liver function test monitoring occurs weekly during the first 6 weeks of study treatment during Phase 1 and then is tested every 3 weeks thereafter and in Phase 2 for subjects who remain on study treatment. Assessment of tumor size (by magnetic resonance imaging or computed tomography scan) is performed at screening or baseline (before beginning therapy), every 9 weeks for 18 months, and then every 12 weeks thereafter until disease progression. Disease progression is defined as progression confirmed by a second, consecutive assessment at least 4 weeks apart with the option for continuing treatment while awaiting radiologic confirmation of progression where feasible, and where subjects are clinically stable, defined as the following: absence of signs and symptoms (including worsening of laboratory values) indicating disease progression, no decline in ECOG performance status, absence of rapid progression of disease, and absence of progressive tumors at critical anatomical sites (e.g., cord compression) requiring urgent alternative medical intervention. […] In accordance with the protocol, INCB024360 was administered in combination with MK-3475. MK-3475 was intravenously administered at a dose of 2 mg/kg as described.

[4] = Grade 3 or 4, 25 mg BID (n = 4)
[5] = Grade 3 or 4, 50 mg BID (n = 8)
[6] = INCB024360 25 mg BID (n = 4) with MK-3475 2 mg/kg IV
[7] = INCB024360 50 mg BID (n = 4) with MK-3475 2 mg/kg IV
[8] = subjects evaluable for response, both cohorts, with MK-3475

Chain of human indoleamine 2,3-dioxygenasae (IDO) (P14902 whole entry): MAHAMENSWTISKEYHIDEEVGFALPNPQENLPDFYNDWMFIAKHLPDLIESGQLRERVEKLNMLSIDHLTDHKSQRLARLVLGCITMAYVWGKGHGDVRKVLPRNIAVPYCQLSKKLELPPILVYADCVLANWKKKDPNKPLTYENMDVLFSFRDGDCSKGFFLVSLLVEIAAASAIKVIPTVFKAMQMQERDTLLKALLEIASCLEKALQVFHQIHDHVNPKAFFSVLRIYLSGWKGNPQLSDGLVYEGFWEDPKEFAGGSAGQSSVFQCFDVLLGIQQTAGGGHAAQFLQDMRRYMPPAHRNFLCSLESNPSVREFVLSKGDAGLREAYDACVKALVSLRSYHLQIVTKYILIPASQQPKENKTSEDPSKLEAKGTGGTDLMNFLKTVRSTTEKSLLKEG

NS(=O)(=O)NCCNc1nonc1C(=NO)Nc1ccc(F)c(C(F)(F)F)c1 [Compound 3, 4-({2-[(aminosulfonyl)amino]ethyl}amino)-N-[4-fluoro-3-(trifluoromethyl)phenyl]-N′-hydroxy-1,2,5-oxadiazole-3-carboximidamide]
pIC50 [1]: > 7.00

NS(=O)(=O)NCCNc1nonc1C(=NO)Nc1ccc(F)c(Br)c1 [Compound 1, 4-({2-[(aminosulfonyl)amino]ethyl}amino)-N-(3-bromo-4-fluorophenyl)-N′-hydroxy-1,2,5-oxadiazole-3-carboximidamide]
Grade 3 rash related to dose limiting toxicity (DLT) ([2]; 50 mg BID cohort): one
Cough (AE) ([2]; All Grades, 25 mg BID (n = 4)): 2 n (%)
DVT (IJ) (AE; Deep Vein Thrombosis, Internal Jugular) ([2]; All Grades, 25 mg BID (n = 4)): 1 n (%)
Diarrhea (AE) ([2]; All Grades, 25 mg BID (n = 4)): 2 n (%)
Dyspnea (AE) ([2]; All Grades, 25 mg BID (n = 4)): 1 n (%)
Fall (AE) ([2]; All Grades, 25 mg BID (n = 4)): 0 n (%)
Fatigue (AE) ([2]; All Grades, 25 mg BID (n = 4)): 0 n (%)
Headache (AE) ([2]; All Grades, 25 mg BID (n = 4)): 1 n (%)
Mild Infusion Reaction (AE) ([2]; All Grades, 25 mg BID (n = 4)): 0 n (%)
Nausea (AE) ([2]; All Grades, 25 mg BID (n = 4)): 2 n (%)
Pruritis (AE) ([2]; All Grades, 25 mg BID (n = 4)): 1 n (%)
Rash (AE) ([2]; All Grades, 25 mg BID (n = 4)): 0 n (%)
Cough (AE) ([2]; All Grades, 50 mg BID (n = 8)): 0 n (%)
DVT (IJ) (AE; Deep Vein Thrombosis, Internal Jugular) ([2]; All Grades, 50 mg BID (n = 8)): 0 n (%)
Diarrhea (AE) ([2]; All Grades, 50 mg BID (n = 8)): 0 n (%)
Dyspnea (AE) ([2]; All Grades, 50 mg BID (n = 8)): 0 n (%)
Fall (AE) ([2]; All Grades, 50 mg BID (n = 8)): 1 n (%)
Fatigue (AE) ([2]; All Grades, 50 mg BID (n = 8)): 1 n (%)
Headache (AE) ([2]; All Grades, 50 mg BID (n = 8)): 0 n (%)
Mild Infusion Reaction (AE) ([2]; All Grades, 50 mg BID (n = 8)): 1 n (%)
Nausea (AE) ([2]; All Grades, 50 mg BID (n = 8)): 1 n (%)
Pruritis (AE) ([2]; All Grades, 50 mg BID (n = 8)): 0 n (%)
Rash (AE) ([2]; All Grades, 50 mg BID (n = 8)): 2 n (%)
Cough (AE) ([2]; All Grades, Total (N = 12)): 2 n (%)
DVT (IJ) (AE; Deep Vein Thrombosis, Internal Jugular) ([2]; All Grades, Total (N = 12)): 1 n (%)
Diarrhea (AE) ([2]; All Grades, Total (N = 12)): 2 n (%)
Dyspnea (AE) ([2]; All Grades, Total (N = 12)): 1 n (%)
Fall (AE) ([2]; All Grades, Total (N = 12)): 1 n (%)
Fatigue (AE) ([2]; All Grades, Total (N = 12)): 1 n (%)
Headache (AE) ([2]; All Grades, Total (N = 12)): 1 n (%)
Mild Infusion Reaction (AE) ([2]; All Grades, Total (N = 12)): 1 n (%)
Nausea (AE) ([2]; All Grades, Total (N = 12)): 3 n (%)
Pruritis (AE) ([2]; All Grades, Total (N = 12)): 1 n (%)
Rash (AE) ([2]; All Grades, Total (N = 12)): 2 n (%)
Cough (AE) [2, 4]: 0 n (%)
DVT (IJ) (AE; Deep Vein Thrombosis, Internal Jugular) [2, 4]: 0 n (%)
Dyspnea (AE) [2, 4]: 0 n (%)
Fall (AE) [2, 4]: 0 n (%)
Fatigue (AE) [2, 4]: 0 n (%)
Headache (AE) [2, 4]: 0 n (%)
Mild Infusion Reaction (AE) [2, 4]: 0 n (%)
Nausea (AE) [2, 4]: 0 n (%)
Pruritis (AE) [2, 4]: 0 n (%)
Rash (AE) [2, 4]: 0 n (%)
Cough (AE) [2, 5]: 0 n (%)
DVT (IJ) (AE; Deep Vein Thrombosis, Internal Jugular) [2, 5]: 0 n (%)
Dyspnea (AE) [2, 5]: 0 n (%)
Fatigue (AE) [2, 5]: 0 n (%)
Headache (AE) [2, 5]: 0 n (%)
Mild Infusion Reaction (AE) [2, 5]: 0 n (%)
Nausea (AE) [2, 5]: 0 n (%)
Pruritis (AE) [2, 5]: 0 n (%)
Rash (AE) [2, 5]: 1 n (%)
Fall (AE) ([2]; Grade 3 or 4, 50 mg BID (n = 8), not related to study treatment): 1 n (%)
Cough (AE) ([2]; Grade 3 or 4, Total (N = 12)): 0 n (%)
DVT (IJ) (AE; Deep Vein Thrombosis, Internal Jugular) ([2]; Grade 3 or 4, Total (N = 12)): 0 n (%)
Dyspnea (AE) ([2]; Grade 3 or 4, Total (N = 12)): 0 n (%)
Fall (AE) ([2]; Grade 3 or 4, Total (N = 12)): 1 n (%)
Fatigue (AE) ([2]; Grade 3 or 4, Total (N = 12)): 0 n (%)
Headache (AE) ([2]; Grade 3 or 4, Total (N = 12)): 0 n (%)
Mild Infusion Reaction (AE) ([2]; Grade 3 or 4, Total (N = 12)): 0 n (%)
Nausea (AE) ([2]; Grade 3 or 4, Total (N = 12)): 0 n (%)
Pruritis (AE) ([2]; Grade 3 or 4, Total (N = 12)): 0 n (%)
Rash (AE) ([2]; Grade 3 or 4, Total (N = 12)): 1 n (%)
response of a subject having melanoma (MEL) ([3]; 25 mg BID Cohort, stable, with MK-3475 2 mg/kg IV): stable disease (SD)
response of a subject having transitional cell carcinoma (TCC) in bladder ([3]; 25 mg BID Cohort, with MK-3475 2 mg/kg IV): partial response (PR)
response of a subject with melanoma (MEL) ([3]; 50 mg BID Cohort, first melanoma subject, with MK-3475 2 mg/kg IV): complete response (CR)
response of a subject with melanoma (MEL) ([3]; 50 mg BID cohort, further melanoma subject, with MK-3475 2 mg/kg IV): partial response (PR)
total best overall response (per modified RECIST v1.1) ([3]; 25 and 50 mg BID cohorts pooled, only subjects evaluable for response (5/7), with MK-3475): 71%
disease control rate ([3]; 25 and 50 mg BID cohorts pooled, only subjects evaluable for response (7/7), with MK-3475): 100%
CR, patients [3, 6]: 0 n (%)
NE (not evaluable), patients [3, 6]: 0 n (%)
PD, patients [3, 6]: 0 n (%)
PR, patients [3, 6]: 2 (50%) n (%)
CR, patients [3, 7]: 1 (33%) n (%)
NE (not evaluable), patients [3, 7]: 1** n (%)
PD, patients [3, 7]: 0 n (%)
PR, patients [3, 7]: 2 (67%) n (%)
Disease Control Rate (DCR) [3, 8]: 7/7
Objective response rate (ORR) [3, 8]: 4/7

Source: patent publication US20170037125A1, “COMBINATION OF A PD-1 ANTAGONIST AND AN IDO1 INHIBITOR FOR TREATING CANCER” (INCYTE CORPORATION, priority 2014, published 2017)
